One data set relates to sepsis. As to conditions: cited from earlier work.
The test system of data set [1] is dextran-induced paw edema. Nature of the data set: dextran-induced rat paw edema. Format: in vivo. An excerpt:
Therefore, it was expected that such a mechanism might also come into play at the central nervous system level.

For data set [2] the following is noted: mice, cited from earlier work.
For data set [3] the following is noted: cited from earlier work.
The conditions of data set [4]: cited from earlier work. This is another data set of the same source.
The test system of a further data set is focal cerebral ischemia. As to conditions: cited from earlier work.
Data set [5] has as its system ischemia (occlusion of both carotid arteries). The experiment in a line: rat ischemia model, reversible 30 minute occlusion of both carotid arteries followed by reperfusion. Format: in vivo. As to conditions: 450 mg/kg i.p. 30 minutes before the occlusion.
Data set [6] concerns arachidonic acid-induced brain inflammation. Nature of the data set: brain inflammation induced by arachidonic acid in the subarachnoid space (CSF volume and WBC count in CSF). Format: in vivo, rat. The procedure:
Male rats, approximately 350–400 g, were anesthetized with sodium pentobarbital at a dose of 50 mg/kg intraperitoneally (i.p.). Animals were then placed in a stereotaxic unit. Fur from the top of the head to neck was shaved. The study area was disinfected with 70% ethanol followed by a 10% providone-iodine solution. Skin and muscle over the cervical cord were dissected until cervical vertebrae were exposed. A hole was made using a 23G3/4 needle passing through the dura via the cisterna magna. One end of a 2–3 mm PE10 cannula (0.011 “I.D., 0.007” thick, 0.024” O.D., 6.5 cm long) was inserted into the subarachnoid space at the cervical cord so as to avoid damage to neuronal tissue (FIG. 3). The cannula was fixed with cyanoacrylic glue to the peripheral tissue. […] The cannula filled with CSF immediately after the cannulation. Air was infused to inject AA to the subarachnoid space. The muscles and skin were closed with surgical staples. The rat was then removed from the stereotaxic unit and placed on a heat pad and continuously monitored. […] If the effects of the anesthesia appeared to be wearing off, an additional 0.05–0.1 ml pentobarbital (50 mg/ml, i.p.) dose was administered. If at any time during the experiment, the animal appeared to be in pain or distress, the study was immediately stopped and the animal was euthanized. In the present study, the volume (μl) of cerebrospinal fluid (CSF) and white blood cell (WBC) counts in CSF was measured every thirty minutes for 11 hours from the same rat. One side of the cannula (PE10) was inserted into the subarachnoid space under pentobarbital anesthesia, avoiding neuronal damage (FIG. 3). If the brain tissue is damaged, the volume of CSF and WBC increases immediately without the administration of arachidonic acid. Since there are no WBC in the CSF in the normal rat, only rats that had no WBC in the CSF immediately after the cannulation were used. Another side of the cannula remained open and was used for the administration of nociceptive stimuli (arachidonic acid, LPS, dextran, etc.) and subsequently for collecting the CSF every thirty minutes during the experiment. The CSF volume was measured using a micropipette and WBC in the CSF were counted by means of a hemacytometer.

Data set [7] concerns interleukin-6 induced leukocyte in CSF. Nature of the data set: interleukin-6 induced white blood cell infiltration into CSF (sepsis model). Format: in vivo, dog. The conditions noted are these: 300, 500, 1000 mg/kg p.o. 30 minutes before interleukin-6; for three days. An excerpt:
TNF-α, interleukin-1 and interleukin-6 produced by activated macrophages at the site of the nociceptive stimuli play a particularly important role in mediating acute-phase inflammation as well as sepsis. In fact, proinflammatory cytokines administered to the outside of the blood brain barrier through the chronically in-dwelling intracerebroventricular catheter attached to an Ommaya reservoir increase white blood cell count (characterized by neutrophilic response and lymphocyte respectively) in the cerebrospinal fluid in dogs. The inflammation induced by interleukin-6, was longer lasting (starting from 2 hours, peak time are 10–24 hours lasting 24–72 hours) than that induced by interleukin-1β and TNF-α. In the present studies presented in the Examples hereinbelow, the inflammation caused by interleukin-6 was used as a sepsis model, measuring the amount of infiltrating white blood cells in the cerebrospinal fluid.

The conditions of data set [8]: rats, cited from earlier work.

Where two headings read alike, the source gives them in different places.

One may read the LD50 as the dose expected to kill half of the subjects tested.

For `C[C@]12CCC(=O)C=C1CC[C@@H]1[C@@H]2[C@@H](O)C[C@@]2(C)[C@H]1CC[C@]2(O)C(=O)CO` [Hydrocortisone], the Effect result in the data set with sepsis (large dose (100 mg i.v. then 0.18/kg/hr)) is listed as “none or worse”; in the data set with sepsis (small dose (100 mg i.v./every 8 hours)), “effective”.
In the case of `O=C(Nc1cccc2c(=O)cc(-c3nnn[nH]3)oc12)c1ccc(OCCCCc2ccccc2)cc1` [pranlukast], the “inhibition of dextran-induced paw edema” value in data set [1] (450 mg/kg, administered intraperitoneally) is recorded as “completely inhibited”. Also, the “inhibition of dextran-caused paw edema” value in data set [1] (450 mg/kg, administered orally (FIG. 2)) was “completely inhibited”. Besides, in data set [1] (rat, in vivo), the “dose dependence of inhibition of dextran-induced paw edema” value is on record as “dose-dependent fashion”. For the same molecule, the LD50 in [2] (p.o.), in data set [2] (s.c.), in data set [8] (p.o.) and in data set [8] (s.c.) was more than 2000 mg/kg each time. The “behavior, changes in body weight and food intake compared with control group” value in [3] (single 30-1000 mg/kg p.o. and repeated 30-1000 mg/kg/day p.o. for three and six months) is listed as “normal”. Besides, in data set [3] (single and repeated administration), the “urine examination and histopathological examinations” value is “normal”. In addition, the “time the maximum blood concentration was maintained” value in data set [4] (20 mg/kg p.o.) is on record as “at least 5 hours”. For the same molecule, the “time to maximum blood concentration” value in [4] (20 mg/kg p.o.) was “within one hour”. Besides, the “pranlukast in blood 24 hours after administration” value in data set [4] (low doses (20 mg/kg p.o.)) is on record as “no pranlukast was observed”. Further, in the data set with focal cerebral ischemia (0.003-1.0 mg/kg i.p. 30 minutes before MCA occlusion and 2 hours after reperfusion, evaluated 24 hours after reperfusion), the “effect on death of brain cells” value is “inhibited the death of brain cells”. Moreover, in the data set with focal cerebral ischemia (Zhang et al (2002)), the most effective dose is 0.1 mg/kg. In [5], the survival entry was “One of 4–5 rats survived for one week”. Moreover, the “effect on brain inflammation caused by a large dose of arachidonic acid” value in data set [6] (arachidonic acid 6.25 μg/2.0 μl, pranlukast 450 mg/kg p.o.) is reported as “not inhibited by pranlukast (450 mg/kg; p.o.) but was attenuated”. The “time until white blood cell count returned to normal (=zero) after arachidonic acid” value in [6] (arachidonic acid 6.25 μg/2.0 μl, pranlukast 450 mg/kg p.o., 5 days without pranlukast) amounted to 36 h. Besides, the “inhibition of the increase of CSF volume” value in [6] (pranlukast 450 mg/kg i.p. thirty minutes before arachidonic acid 3.25 μg/2 μl, n=4) was “completely inhibited”. In addition, the “inhibition of inflammation caused by arachidonic acid” value in data set [6] (pranlukast 450 mg/kg i.p., arachidonic acid 3.25 μg/2 μl) was “completely inhibits”. For the same molecule, the “inhibition of interleukin-6 induced leukocyte in CSF” value in data set [7] was “completely inhibited”.

The values are drawn from US7148248B2, “Method of treating or inhibiting the development of brain inflammation and sepsis” (priority 2002, dated 2006).
